SMILES strings stand for the structures.

The target in one assay is T1, E. coli PBP2 (Escherichia coli, UniProt P0AD65).
T1 construct: 100 μg's of total membrane protein extracts containing PBPs; endogenous in cells; host or cells: Escherichia coli K12, membrane protein fraction
As to the kind of experiment: Bocillin FL competition binding assay, PBP2. To be noted: 15 min pre-incubation. The arrangement: species or system Escherichia coli K12. The procedure, abridged: (§1)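 E. coli K12 membrane extracts (100 µg protein) pre-incubated 15 min with compound (0.005–2,480 µg/mL) in pH 7 phosphate/350 mM NaCl, then labelled with Bocillin FL 30 min at 35°C; SDS-PAGE fluorescence (ex 450/em 520 nm), μg/mL reported. PBP1a/1b unresolved, reported combined.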

A further assay concerns S. aureus ATCC 29213. As to the kind of experiment: Broth microdilution MIC assay, S. aureus. It is filed as cell-based. As to conditions: Staphylococcus aureus, ATCC29213; broth microdilution, 16-20 hours at 37° C.; read-out: S. aureus 29213 MIC. The procedure, abridged:
(§2)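 Two-fold serial dilutions tested per CLSI in cation-supplemented Mueller-Hinton broth against S. aureus ATCC 29213 and hyper-permeable E. coli 901C; inoculum 5×10^5 CFU/mL from 3-5 h log-phase culture. Incubated 16-20 h at 37° C; MIC read visually as lowest concentration with no growth.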

The next assay addresses T2, E. coli PBP3 (Escherichia coli, UniProt P0AD68).
T2 construct: 100 μg's of total membrane protein extracts containing PBPs; endogenous in cells; host or cells: Escherichia coli K12, membrane protein fraction
Description: Bocillin FL competition binding assay, PBP3. To be noted: 15 min pre-incubation. Details: species or system Escherichia coli K12. The procedure, abridged:
as §1

The test system of assay [1] is hyper-permeable E. coli 901C. As to the kind of experiment: Broth microdilution MIC assay, hyper-permeable E. coli. It is filed as cell-based. As to conditions: Escherichia coli, read-out: E. coli 901C MIC. The procedure, abridged:
as §2
For orientation: In broth dilution the organism is exposed to a series of concentrations in liquid medium.

A further assay relates to E. coli K12 PBP1a/b. Description: Bocillin FL competition binding assay, PBP1a/1b combined. Details: species or system Escherichia coli K12. To be noted: 15 min pre-incubation, PBP 1a/1b combined. The procedure, abridged:
as §1

T2 sequence (P0AD68 1-577): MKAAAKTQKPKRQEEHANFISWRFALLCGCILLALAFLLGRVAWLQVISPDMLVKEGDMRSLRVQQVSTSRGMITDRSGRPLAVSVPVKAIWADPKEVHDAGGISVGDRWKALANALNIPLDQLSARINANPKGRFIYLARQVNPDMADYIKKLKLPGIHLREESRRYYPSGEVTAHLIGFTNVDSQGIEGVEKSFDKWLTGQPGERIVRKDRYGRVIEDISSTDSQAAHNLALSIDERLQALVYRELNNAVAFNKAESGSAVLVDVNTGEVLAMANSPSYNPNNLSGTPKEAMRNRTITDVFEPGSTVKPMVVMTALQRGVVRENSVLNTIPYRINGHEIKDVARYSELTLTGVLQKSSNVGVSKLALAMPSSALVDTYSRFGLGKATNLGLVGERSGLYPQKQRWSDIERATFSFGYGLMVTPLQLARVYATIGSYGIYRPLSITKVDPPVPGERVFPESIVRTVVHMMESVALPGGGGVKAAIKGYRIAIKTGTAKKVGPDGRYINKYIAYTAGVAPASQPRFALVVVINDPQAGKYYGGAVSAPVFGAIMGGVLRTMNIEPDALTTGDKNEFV
T1 sequence (P0AD65 whole entry): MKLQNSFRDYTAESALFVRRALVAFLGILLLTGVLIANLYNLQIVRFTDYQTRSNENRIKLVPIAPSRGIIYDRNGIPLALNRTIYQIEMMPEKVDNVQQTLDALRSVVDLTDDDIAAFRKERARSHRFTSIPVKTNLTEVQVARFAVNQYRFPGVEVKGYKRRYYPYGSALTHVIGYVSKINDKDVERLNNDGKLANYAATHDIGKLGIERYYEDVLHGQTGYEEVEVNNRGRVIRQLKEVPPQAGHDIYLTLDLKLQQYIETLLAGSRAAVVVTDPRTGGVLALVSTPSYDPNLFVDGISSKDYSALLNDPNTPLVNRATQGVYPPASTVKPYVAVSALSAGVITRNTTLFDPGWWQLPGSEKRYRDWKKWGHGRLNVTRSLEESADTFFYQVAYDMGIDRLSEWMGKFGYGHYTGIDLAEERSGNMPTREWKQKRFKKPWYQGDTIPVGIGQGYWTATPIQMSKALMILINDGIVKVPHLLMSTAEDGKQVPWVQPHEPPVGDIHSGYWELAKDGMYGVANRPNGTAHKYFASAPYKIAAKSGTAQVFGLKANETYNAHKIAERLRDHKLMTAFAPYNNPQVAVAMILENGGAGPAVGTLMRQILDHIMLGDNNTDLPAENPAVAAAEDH

Regarding `Nc1nc(/C(=C\C(=O)O)C(=O)N[C@H]2Cc3cccc(C(=O)O)c3OB2O)cs1` [Example 88, (R,E)-3-(2-(2-aminothiazol-4-yl)-3-carboxyacrylamido)-2-hydroxy-3,4-dihydro-2H-benzo[e][1,2]oxaborinine-8-carboxylic Acid], the “E. coli PBP2 Potency” value on E. coli PBP2 was “B (B represents a potency between 64 and 1000 μg/mL inclusive)”. For the same compound, the MIC (commonly the lowest concentration that inhibits growth of the organism) is > 128 mg/L in the assay with S. aureus ATCC 29213 and 64 to 128 mg/L in assay [1]. For the same compound, the “E. coli PBP3 Potency” value at E. coli PBP3 is “B (B represents a potency between 64 and 1000 μg/mL inclusive)”. For the same compound, in the assay on E. coli K12 PBP1a/b, the “E. coli K12 PBP1a/b Potency” value was “A (A represents a potency of >1000 μg/mL)”.

For `N=C(NCCN)c1ccc(OCCO/N=C(\C(=O)N[C@H]2Cc3cccc(C(=O)O)c3OB2O)c2csc(N)n2)cc1` [Example 64, (R,Z)-3-(2-((2-(4-(N-(2-aminoethyl)carbamimidoyl)phenoxy)ethoxy)imino)-2-(2-aminothiazol-4-yl)acetamido)-2-hydroxy-3,4-dihydro-2H-benzo[e][1,2]oxaborinine-8-carboxylic Acid], the “E. coli PBP2 Potency” value at E. coli PBP2 was “B (B represents a potency between 64 and 1000 μg/mL inclusive)”. The figures for the MIC (with S. aureus ATCC 29213; in assay [1]) were > 128 mg/L and < 64 mg/L, respectively. Also, the “E. coli PBP3 Potency” value on E. coli PBP3 is reported as “C (C represents a potency of <64 μg/mL)”. Moreover, in the assay on E. coli K12 PBP1a/b, the “E. coli K12 PBP1a/b Potency” value is given as “C (C represents a potency of <64 μg/mL)”.

For `COc1cc2c(c(C(=O)O)c1)OB(O)[C@@H](NC(=O)/C(=N\O)c1csc(N)n1)C2` [Example 42, (R,Z)-3-(2-(2-aminothiazol-4-yl)-2-(hydroxyimino)acetamido)-2-hydroxy-6-methoxy-3,4-dihydro-2H-benzo[e][1,2]oxaborinine-8-carboxylic Acid], on E. coli PBP2, the “E. coli PBP2 Potency” value is “C (C represents a potency of <64 μg/mL)”. Further, the MIC (with S. aureus ATCC 29213; in assay [1]) was < 64 mg/L in each case. Further, the “E. coli PBP3 Potency” value at E. coli PBP3 was “C (C represents a potency of <64 μg/mL)”. In addition, the “E. coli K12 PBP1a/b Potency” value with E. coli K12 PBP1a/b is given as “C (C represents a potency of <64 μg/mL)”.

Take `Nc1nc(/C(=N/O)C(=O)N[C@H]2Cc3cc(Cl)cc(C(=O)O)c3OB2O)cs1` [Example 44, (R,Z)-3-(2-(2-aminothiazol-4-yl)-2-(hydroxyimino)acetamido)-6-chloro-2-hydroxy-3,4-dihydro-2H-benzo[e][1,2]oxaborinine-8-carboxylic Acid]: the “E. coli PBP2 Potency” value at E. coli PBP2 is “B (B represents a potency between 64 and 1000 μg/mL inclusive)”. The MIC (with S. aureus ATCC 29213; in assay [1]) was < 64 mg/L throughout. Also, on E. coli PBP3, the “E. coli PBP3 Potency” value was “B (B represents a potency between 64 and 1000 μg/mL inclusive)”. In addition, the “E. coli K12 PBP1a/b Potency” value in the assay with E. coli K12 PBP1a/b is “B (B represents a potency between 64 and 1000 μg/mL inclusive)”.

As for `CC(C)(O/N=C(\C(=O)N[C@H]1Cc2cccc(C(=O)O)c2OB1O)c1csc(N)n1)C(N)=O` [Example 72, (R,Z)-3-(2-(((1-amino-2-methyl-1-oxopropan-2-yl)oxy)imino)-2-(2-aminothiazol-4-yl)acetamido)-2-hydroxy-3,4-dihydro-2H-benzo[e][1,2]oxaborinine-8-carboxylic Acid], the “E. coli PBP2 Potency” value on E. coli PBP2 is “C (C represents a potency of <64 μg/mL)”. Besides, the results for the MIC (with S. aureus ATCC 29213; in assay [1]) were > 128 mg/L and < 64 mg/L, respectively. In addition, the “E. coli PBP3 Potency” value on E. coli PBP3 is recorded as “C (C represents a potency of <64 μg/mL)”. In the assay on E. coli K12 PBP1a/b, the “E. coli K12 PBP1a/b Potency” value is reported as “C (C represents a potency of <64 μg/mL)”.

In the case of `CC(O/N=C(\C(=O)N[C@H]1Cc2cccc(C(=O)O)c2OB1O)c1csc(N)n1)C(=O)O` (stereo partly drawn) [Example 71, (3R)-3-((Z)-2-(2-aminothiazol-4-yl)-2-((1-carboxyethoxy)imino)acetamido)-2-hydroxy-3,4-dihydro-2H-benzo[e][1,2]oxaborinine-8-carboxylic Acid], the “E. coli PBP2 Potency” value at E. coli PBP2 is “C (C represents a potency of <64 μg/mL)”. Further, the minimal inhibitory concentration (MIC) with S. aureus ATCC 29213 was > 128 mg/L; in assay [1] it was < 64 mg/L. The “E. coli PBP3 Potency” value on E. coli PBP3 is reported as “C (C represents a potency of <64 μg/mL)”. Moreover, in the assay with E. coli K12 PBP1a/b, the “E. coli K12 PBP1a/b Potency” value was “C (C represents a potency of <64 μg/mL)”.

With `Nc1nc(/C(=N/O)C(=O)N[C@H]2Cc3cccc(C(=O)O)c3OB2O)c(Cl)s1` [Example 17, (R,Z)-3-(2-(2-amino-5-chlorothiazol-4-yl)-2-(hydroxyimino)acetamido)-2-hydroxy-3,4-dihydro-2H-benzo[e][1,2]oxaborinine-8-carboxylic Acid], the “E. coli PBP2 Potency” value on E. coli PBP2 is “B (B represents a potency between 64 and 1000 μg/mL inclusive)”. In addition, the results for the MIC (in the assay on S. aureus ATCC 29213; in assay [1]) were < 64 mg/L and 64 to 128 mg/L, respectively. Moreover, at E. coli PBP3, the “E. coli PBP3 Potency” value is “B (B represents a potency between 64 and 1000 μg/mL inclusive)”. The “E. coli K12 PBP1a/b Potency” value in the assay on E. coli K12 PBP1a/b was “B (B represents a potency between 64 and 1000 μg/mL inclusive)”.

On to `CC(O/N=C(\C(=O)N[C@H]1Cc2cccc(C(=O)O)c2OB1O)c1csc(N)n1)C(N)=O` (stereo partly drawn) [Example 73, (3R)-3-((Z)-2-(((1-amino-1-oxopropan-2-yl)oxy)imino)-2-(2-aminothiazol-4-yl)acetamido)-2-hydroxy-3,4-dihydro-2H-benzo[e][1,2]oxaborinine-8-carboxylic Acid], for which the “E. coli PBP2 Potency” value at E. coli PBP2 was “C (C represents a potency of <64 μg/mL)”. Further, the minimal inhibitory concentration (MIC) in the assay on S. aureus ATCC 29213 was > 128 mg/L; in assay [1], < 64 mg/L. In addition, the “E. coli PBP3 Potency” value on E. coli PBP3 was “C (C represents a potency of <64 μg/mL)”. Moreover, the “E. coli K12 PBP1a/b Potency” value with E. coli K12 PBP1a/b is “C (C represents a potency of <64 μg/mL)”.

As to `NCCCC[C@@H](NC(=O)CO/N=C(\C(=O)N[C@H]1Cc2cccc(C(=O)O)c2OB1O)c1csc(N)n1)C(=O)O` [Example 66, (R)-3-((Z)-2-((2-(((R)-5-amino-1-carboxypentyl)amino)-2-oxoethoxy)imino)-2-(2-aminothiazol-4-yl)acetamido)-2-hydroxy-3,4-dihydro-2H-benzo[e][1,2]oxaborinine-8-carboxylic Acid], the “E. coli PBP2 Potency” value at E. coli PBP2 is “B (B represents a potency between 64 and 1000 μg/mL inclusive)”. Besides, the MIC was > 128 mg/L in the assay with S. aureus ATCC 29213 and < 64 mg/L in assay [1]. The “E. coli PBP3 Potency” value at E. coli PBP3 is “C (C represents a potency of <64 μg/mL)”. Also, the “E. coli K12 PBP1a/b Potency” value in the assay on E. coli K12 PBP1a/b is “C (C represents a potency of <64 μg/mL)”.

Take `CC(C)(O/N=C(\C(=O)N[C@H]1Cc2cccc(C(=O)O)c2OB1O)c1csc(N)n1)C(=O)NCC(=O)O` [Example 75, (R,Z)-3-(2-(2-aminothiazol-4-yl)-2-(((1-((carboxymethyl)amino)-2-methyl-1-oxopropan-2-yl)oxy)imino)acetamido)-2-hydroxy-3,4-dihydro-2H-benzo[e][1,2]oxaborinine-8-carboxylic Acid]: the “E. coli PBP2 Potency” value at E. coli PBP2 is on record as “C (C represents a potency of <64 μg/mL)”. The MIC with S. aureus ATCC 29213 is > 128 mg/L; in assay [1], < 64 mg/L. In addition, the “E. coli PBP3 Potency” value on E. coli PBP3 is “C (C represents a potency of <64 μg/mL)”. In the assay on E. coli K12 PBP1a/b, the “E. coli K12 PBP1a/b Potency” value is reported as “C (C represents a potency of <64 μg/mL)”.
